Measurements from US10758549B2, “Compositions of obeticholic acid and methods of use” (Intercept Pharmaceuticals, Inc., priority 2015, dated 2020).

What was measured:
[1] = Example 10: clinical pharmacology / pharmacokinetics of OCA; assay type: in vivo, human; conditions: for systemic exposure versus dose: 5, 10, and 25 mg once daily for 14 days; for metabolite-to-parent ratio: after daily administration of obeticholic acid; for median time (Tmax) of peak plasma concentrations: glyco-OCA and tauro-OCA conjugates, multiple oral doses of OCA 10 mg once daily
Protocol: This example describes clinical pharmacology and dosing of obeticholic acid (OCA—including obeticholic acid compositions described herein). […] OCA can be supplied as an oral tablet containing obeticholic acid in a formulation as described herein.
Median Tmax for glyco-OCA and tauro-OCA is 10 hours.
Following an oral administration of 25 mg [^14C]-OCA, about 87% of the dose is excreted in feces through biliary secretion. Less than 3% of the dose is excreted in the urine with no detection of OCA.

[2] = molecular target: T1, farnesoid X receptor (FXR) (Homo sapiens, UniProt Q96RI1); conditions: in vitro / on FXR; cited from earlier work
T1 sequence (Q96RI1 1-486): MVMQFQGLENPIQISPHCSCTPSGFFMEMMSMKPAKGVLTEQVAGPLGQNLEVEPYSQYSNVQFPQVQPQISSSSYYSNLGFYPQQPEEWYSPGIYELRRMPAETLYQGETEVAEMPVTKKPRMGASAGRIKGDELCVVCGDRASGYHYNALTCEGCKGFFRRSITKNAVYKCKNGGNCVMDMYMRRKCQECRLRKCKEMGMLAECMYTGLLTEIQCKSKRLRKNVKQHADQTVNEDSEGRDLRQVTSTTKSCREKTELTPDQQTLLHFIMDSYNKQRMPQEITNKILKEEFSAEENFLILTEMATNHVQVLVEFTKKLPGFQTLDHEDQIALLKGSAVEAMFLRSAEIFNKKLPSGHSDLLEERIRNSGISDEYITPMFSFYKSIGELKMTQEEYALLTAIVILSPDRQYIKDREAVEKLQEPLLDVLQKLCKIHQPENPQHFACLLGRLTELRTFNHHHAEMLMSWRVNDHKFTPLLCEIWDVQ

[3] = Physiologic pharmacokinetic model of OCA (population PK fit and simulations); parameters: species or system human; conditions: normal hepatic function, model estimate
Protocol: Plasma levels of OCA and its conjugates were measured in healthy subjects and cirrhotic patients with varying degrees of hepatic impairment. A physiologic pharmacokinetic model for OCA was developed to quantitatively describe the absorption, distribution, metabolism, and excretion of OCA in patients with and without hepatic impairment. The model was based on a published multi-compartment PK model for CDCA, and consisted of systemic, hepatobiliary, and intestinal systems. The model was used to simulate the pathophysiological abnormalities caused by cirrhosis including decreased hepatic uptake, portal-systemic shunting, decreased liver volume, and differences in amino acid conjugation.
This examples describes development of a physiologic PK model to quantitatively describe the absorption, distribution, metabolism, and excretion of OCA. In addition, the model was used to define the effects of hepatic impairment to predict the systemic and liver exposure to OCA in subjects with various degrees of liver impairment relative to healthy subjects with normal liver function. The model was developed based on 3 studies in healthy volunteers and 2 studies in patients with varying degrees of hepatic impairment […].
Data from was used to develop the model in healthy subjects (n=160) and then adjust for hepatic impairment (n=32) using the data from the above Examples. After development, the model was validated with data sourced from healthy subjects and cirrhotic patients.
The data used in model development included subject identifiers, time of dosing and sample collection, plasma drug concentrations (OCA, glyco-OCA, and tauro-OCA), dose amount, disease status (e.g., Child-Pugh score), and meal consumption information. Study participants received standardized meals at specified times during inpatient observation. Gallbladder contraction was assumed to last 90 minutes after the start of a meal. Drug concentrations below the limit of quantification (BLQ) were imputed to half of the lower limit of quantification (LLOQ). Observed and BLQ concentrations of OCA, glyco-OCA, and tauro-OCA associated with samples drawn prior to the first dose were excluded from the analyses.
A number of structural modifications were made to the base CDCA model in order to adapt it for use with OCA. For simplification, a single space was used to represent the gut (small and large intestines). Since OCA is an exogenous molecule, it was assumed that there was no endogenous synthesis and an absorption compartment with a first-order transfer coefficient (Ka) was included to represent the administration and absorption kinetics of an oral OCA dose. Based on steric hindrance by the 6-ethyl group of OCA, no bacterial 7-alpha dehydroxylation biotransformation activity (i.e., CDCA to lithocholic acid) was included in the model. Compartment volumes in the model were fixed to physiological values from the base CDCA model. The OCA model used the physiological flow values for blood, bile and gastrointestinal transit from the original physiologic PK model for CDCA, with the exception of flows from bile duct to gallbladder and from bile duct to gut. The physiological values from the base model led to poor predictions and may not be applicable due to the simplification of the enteral system into a unified gut compartment. The biotransformation and transport rates in the model, being dependent on chemical entity structure, were estimated by fitting the model to the plasma concentration time profiles of OCA, glyco-OCA, and tauro-OCA.
The PK model was first developed using the OCA, glyco-OCA, and tauro-OCA plasma concentration time profiles from healthy volunteers with normal hepatic function. Model parameter estimates related to healthy physiology were then held constant while the PK model was further developed using OCA, glyco-OCA, and tauro-OCA plasma concentration time profiles from patients with hepatic impairment (Child-Pugh scores A, B, and C). […]

[4] = normal hepatic function, Fixed; cited from earlier work

CC[C@H]1[C@@H](O)[C@@H]2[C@H](CC[C@]3(C)[C@@H]([C@H](C)CCC(=O)NCC(=O)O)CC[C@@H]23)[C@@]2(C)CC[C@@H](O)C[C@@H]12 [glyco-OCA]
systemic exposure versus dose [1]: increase more than proportionally with dose
metabolite-to-parent ratio [1]: 13.8
median time (Tmax) of peak plasma concentrations [1]: 10 h
pharmacological activity relative to OCA (parent drug) [2]: nearly equipotent
b38: Glyco-OCA rate of deconjugation to OCA [3]: 0.0431 h⁻¹
t9: Glyco-OCA transport rate from sinusoidal space to liver [3]: 1210 h⁻¹
t19: Glyco-OCA transport rate from liver to bile duct [3]: 7.44 h⁻¹
t33: Glyco-OCA rate of absorption from gut to portal space [3]: 0.904 h⁻¹
t12: Glyco-OCA and tauro-OCA transport rate from liver to sinusoidal space [4]: 1.62 h⁻¹

CC[C@H]1[C@@H](O)[C@@H]2[C@H](CC[C@]3(C)[C@@H]([C@H](C)CCC(=O)NCCS(=O)(=O)O)CC[C@@H]23)[C@@]2(C)CC[C@@H](O)C[C@@H]12 [tauro-OCA]
systemic exposure versus dose [1]: increase more than proportionally with dose
metabolite-to-parent ratio [1]: 12.3
median time (Tmax) of peak plasma concentrations [1]: 10 h
pharmacological activity relative to OCA (parent drug) [2]: nearly equipotent
b37: Tauro-OCA rate of deconjugation to OCA [3]: 0.0200 h⁻¹
t11: Tauro-OCA transport rate from sinusoidal space to liver [3]: 1615 h⁻¹
t21: Tauro-OCA transport rate from liver to bile duct [3]: 9.28 h⁻¹
t35: Tauro-OCA rate of absorption from gut to portal space [3]: 1.62 h⁻¹
t12: Glyco-OCA and tauro-OCA transport rate from liver to sinusoidal space [4]: 1.62 h⁻¹
